logP | Compound
1.04 | CCC(CO)Nc1ncc(-c2ccncc2)cc1C#N (centres undefined)
4.06 | O=C(OCCCNc1ccc(-c2ccncc2)cn1)c1ccccc1
1.65 | CC(O)COc1ncc(-c2ccncc2)cc1C#N (centres undefined)
2 | CC(=O)OCCNc1ccc(-c2ccncc2)cn1
2.03 | COCCCNc1ncc(-c2ccncc2)cc1C#N
3.15 | Cc1nc(N2CCNCC2)c(C#N)cc1-c1ccccc1
2.47 | CCC(=O)OCCNc1ccc(-c2ccncc2)cn1
1.92 | CC(=O)OCCOc1ccc(-c2ccncc2)cn1
2.48 | CC(=O)OCCCOc1ccc(-c2ccncc2)cn1
2.41 | COc1nc(C)c(-c2ccncc2)cc1C#N
1.93 | N#Cc1cc(-c2ccncc2)cnc1NCCCCO
2.59 | CCOc1ncc(-c2ccncc2)cc1C#N
1.91 | Cc1nc(NCCN)c(C#N)cc1-c1ccncc1
2.59 | CC(=O)OCCNc1ccc(-c2ccncc2)c(C)n1
